Values joined by “and” are separate entries in the source; they are usually repeats but may differ in a detail not shown here. Equal values may be shown once. Read-outs that look alike come from different tables or passages of the source. Positions of bridges follow the written chain, without caps; N, C: chain ends. Non-standard residues stand in square brackets, D forms with d. Residues, ends and D or L forms follow the SMILES beside them. *: point of attachment. X1 = N=C(N)NCCC[C@H]1C(=O)N[C@H](C(N)=O)CN1*; dNle = CCCC[C@@H](N)C(=O)O; Heptanoyl = CCCCCCC(=O)*
Key:
[1] = test system: 75 diverse molecular targets; test: CEREP standard profiling screen; type: binding; details: 1 µM
[2] = test system: mean arterial blood pressure and heart rate; test: Cardiovascular parameters in anaesthetized guinea pigs; details: i.t.; PL-3994 1–1000 µg/kg, salbutamol 1000 µg/kg; n = 6
[3] = target: non-selective somatostatin receptor (sst); test: CEREP profiling screen and follow-up Ki; type: binding; details: read-out: Ki, sst; follow-up study
human NPR-B = target: T1, human NPR-B (Homo sapiens, UniProt P20594); test: cGMP generation in HEK293 cells expressing receptor; type: cell-based; details: for Effect on cGMP generation in hNPR-B functional assay: concentrations up to 10 µM; for Emax, cGMP generation, hNPR-B: mean ± SEM
T1 sequence (P20594 23-1047): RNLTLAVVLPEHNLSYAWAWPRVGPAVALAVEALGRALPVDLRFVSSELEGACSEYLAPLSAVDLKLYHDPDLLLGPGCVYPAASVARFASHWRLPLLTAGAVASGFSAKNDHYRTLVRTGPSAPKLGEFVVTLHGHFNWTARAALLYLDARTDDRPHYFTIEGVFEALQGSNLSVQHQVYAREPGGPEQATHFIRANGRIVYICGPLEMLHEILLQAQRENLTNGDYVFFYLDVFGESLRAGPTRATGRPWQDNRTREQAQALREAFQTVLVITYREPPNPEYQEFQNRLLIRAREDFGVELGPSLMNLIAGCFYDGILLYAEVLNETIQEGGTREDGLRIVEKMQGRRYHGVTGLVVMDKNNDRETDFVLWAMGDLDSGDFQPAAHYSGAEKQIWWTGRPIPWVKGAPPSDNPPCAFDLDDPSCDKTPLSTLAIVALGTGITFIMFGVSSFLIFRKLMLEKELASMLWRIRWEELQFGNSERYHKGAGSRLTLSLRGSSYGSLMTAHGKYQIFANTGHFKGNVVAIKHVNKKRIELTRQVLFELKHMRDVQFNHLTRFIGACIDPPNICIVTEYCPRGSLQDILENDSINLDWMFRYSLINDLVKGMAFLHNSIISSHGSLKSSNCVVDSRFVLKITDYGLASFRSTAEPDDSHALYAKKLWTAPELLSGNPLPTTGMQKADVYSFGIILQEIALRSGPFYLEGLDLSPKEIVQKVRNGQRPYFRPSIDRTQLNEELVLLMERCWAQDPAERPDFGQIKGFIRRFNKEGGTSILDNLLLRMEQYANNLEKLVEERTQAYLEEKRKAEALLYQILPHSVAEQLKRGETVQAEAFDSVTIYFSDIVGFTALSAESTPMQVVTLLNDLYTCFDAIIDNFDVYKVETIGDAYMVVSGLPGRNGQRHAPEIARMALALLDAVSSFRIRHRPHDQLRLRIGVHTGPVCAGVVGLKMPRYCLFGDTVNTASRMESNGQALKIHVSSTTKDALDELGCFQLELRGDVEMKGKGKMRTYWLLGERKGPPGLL

[4] = test system: bronchoconstrictor response to aerosolized methacholine; test: Methacholine-induced bronchoconstriction in anaesthetized guinea pigs; type: in vivo, guinea pig; details: for Maximum inhibition of methacholine bronchoconstrictor response: 1000 µg/kg i.t., 15-min pretreatment, n = 6, mean ± SEM; for Inhibition of methacholine bronchoconstriction at 60 min: i.t., 60-min pretreatment, all doses
kappa opioid receptor = test: CEREP profiling screen and follow-up Ki; type: binding; details: read-out: Ki, kappa; follow-up study
rat trachea = test: Relaxation of carbachol-precontracted rat trachea; details: 100 µM; carbachol 1 µM; n = 6; mean ± SEM
[5] = cited from earlier work

Compound	Effect on heart rate compared to baseline [2]	Effect on mean arterial blood pressure compared to baseline [2]	Effect on cGMP generation in hNPR-B functional assay (human NPR-B)	Maximum inhibition of methacholine bronchoconstrictor response [4]	Inhibition of methacholine bronchoconstriction at 60 min [4]	Emax, cGMP generation, hNPR-B (human NPR-B) [% hCNP]	other results
CCCCCCC(=O)N[C@H]1CSSC[C@@H](C(=O)N[C@@H](Cc2ccc(O)cc2)C(=O)N2C[C@@H](C(N)=O)NC(=O)[C@@H]2CCCNC(=N)N)NC(=O)[C@H](CO)NC(=O)[C@H]([C@@H](C)CC)NC(=O)[C@H](CCCNC(=N)N)NC(=O)[C@H](CC(=O)O)NC(=O)[C@@H](CCCC)NC(=O)[C@H](CCCNC(=N)N)NC(=O)CNC(=O)[C@@H](C)NC(=O)[C@H](Cc2ccccc2)NC(=O)[C@H](Cc2c[nH]cn2)NC1=O [PL-3994, Hept-cyclo(Cys-His-Phe-D-Ala-Gly-Arg-D-Nle-Asp-Arg-Ile-Ser-Cys)-Tyr-[Arg-mimetic]-NH2] (Heptanoyl-CHF[dA]GR[dNle]DRISCY-X1; disulfide 1-12)	no significant effect	no significant effect	without effect	70%	maintained	–	Effect against 75 diverse molecular targets [1]: without significant effect; Ki [3]: 4200 nM; EC50, cGMP generation, hNPR-B (human NPR-B; HEK293 cells, 0.5 mM IBMX, 15 min, cGMP HTRF): Not calculable; Inhibition of methacholine bronchoconstriction at 120 min ([4]; 10 µg/kg and 100 µg/kg i.t.): extended to 120 min post-administration, although it was reduced; Inhibition of methacholine bronchoconstriction at 240 min ([4]; 10 µg/kg and 100 µg/kg i.t., 240-min pretreatment): absent; Ki (kappa opioid receptor): 880 nM
CC[C@H](C)[C@@H]1NC(=O)[C@H](CCCNC(=N)N)NC(=O)[C@H](CC(=O)O)NC(=O)[C@H](CCSC)NC(=O)[C@H](CCCCN)NC(=O)[C@H](CCCNC(=N)N)NC(=O)CNC(=O)[C@H](Cc2ccccc2)NC(=O)[C@@H](NC(=O)CNC(=O)[C@H](CO)NC(=O)CNC(=O)[C@H](CCC(N)=O)NC(=O)[C@@H](NC(=O)[C@H](CCSC)NC(=O)[C@H](CCCCN)NC(=O)[C@@H]2CCCN2C(=O)[C@@H](N)CO)C(C)C)CSSC[C@@H](C(=O)N[C@@H](CCCCN)C(=O)N[C@H](C(=O)N[C@@H](CC(C)C)C(=O)N[C@@H](CCCNC(=N)N)C(=O)N[C@@H](CCCNC(=N)N)C(=O)N[C@@H](Cc2c[nH]cn2)C(=O)O)C(C)C)NC(=O)CNC(=O)[C@H](CC(C)C)NC(=O)CNC(=O)[C@H](CO)NC(=O)[C@H](CO)NC(=O)[C@H](CO)NC(=O)[C@H](CO)NC1=O [hBNP, brain natriuretic peptide]	–	–	no functional activity	–	–	9 ± 1	–
CC(C)(C)NCC(O)c1ccc(O)c(CO)c1 (stereo not drawn) [salbutamol]	no significant effect	no significant effect	–	87 ± 2% and 87%	maintained	–	Relaxation of carbachol-precontracted rat trachea (rat trachea): 70.0 ± 10.4 % relaxation
CC[C@H](C)[C@@H]1NC(=O)[C@H](CCCNC(=N)N)NC(=O)[C@H](CC(=O)O)NC(=O)[C@H](CCSC)NC(=O)[C@H](CCCNC(=N)N)NC(=O)CNC(=O)CNC(=O)[C@H](Cc2ccccc2)NC(=O)[C@@H](NC(=O)[C@H](CO)NC(=O)[C@H](CO)NC(=O)[C@H](CCCNC(=N)N)NC(=O)[C@H](CCCNC(=N)N)NC(=O)[C@H](CC(C)C)NC(=O)[C@@H](N)CO)CSSC[C@@H](C(=O)N[C@@H](CC(N)=O)C(=O)N[C@@H](CO)C(=O)N[C@@H](Cc2ccccc2)C(=O)N[C@@H](CCCNC(=N)N)C(=O)N[C@@H](Cc2ccc(O)cc2)C(=O)O)NC(=O)CNC(=O)[C@H](CC(C)C)NC(=O)CNC(=O)[C@H](CO)NC(=O)[C@H](CCC(N)=O)NC(=O)[C@H](C)NC(=O)CNC1=O [hANP, atrial natriuretic peptide]	–	–	–	–	–	6 ± 0.8	Human plasma half-life ([5]; human, in vivo): about 2 min
CC[C@H](C)[C@@H]1NC(=O)[C@H](CCCNC(=N)N)NC(=O)[C@H](CC(=O)O)NC(=O)[C@H](CC(C)C)NC(=O)[C@H](CCCCN)NC(=O)[C@H](CC(C)C)NC(=O)CNC(=O)[C@H](Cc2ccccc2)NC(=O)[C@@H](NC(=O)CNC(=O)[C@H](CCCCN)NC(=O)[C@H](CO)NC(=O)[C@H](CC(C)C)NC(=O)CN)CSSC[C@@H](C(=O)O)NC(=O)CNC(=O)[C@H](CC(C)C)NC(=O)CNC(=O)[C@H](CO)NC(=O)[C@H](CCSC)NC(=O)[C@H](CO)NC(=O)CNC1=O [CNP, C-type natriuretic peptide]	–	–	–	–	–	–	Human plasma half-life ([5]; ref [10]): about 2 min

From PMC4070431 (Pulmonary pharmacology & therapeutics, 2012)
